Reference: patent US11807625B2, “Capsid inhibitors for the prevention of HIV” (Gilead Sciences, Inc., priority 2019, dated 2023)
Like-named read-outs stand apart in the source and are kept apart here.

Assay: PK of compound of Formula (Ia) after single subcutaneous dose of solution formulations in Wistar Han rats
Type: in vivo
Conditions: male, Wistar Han, rat, plasma, sc, 50 mg/kg; for concentration at 2688 h / concentration at 3024 h / concentration at 3360 h / concentration at 3696 h / concentration at 4032 h / concentration at 4704 h: Wistar Han rats, SC 50 mg/kg, 500 mg/mL solution X (5.00% ethanol, 1.91% poloxamer 188); for AUC(0-t): male Wistar Han rats, single SC 50 mg/kg, mean ± SD
Experimental: Formulations containing the compound of Formula (Ia), or a pharmaceutically acceptable salt thereof, were prepared as solutions and optionally administered subcutaneously or intramuscularly to rats, rabbits, and/or dogs.
(§1) A solution of about 400 mg/mL of the compound of Formula (Ia) having 19.14 w/w % water, 40.66 w/w % PEG 300, 35.20 w/w % of a sodium salt of a compound of Formula (Ia), and 5.00% ethanol was prepared. The solution was administered subcutaneously to male Wistar Han rats at a dose level of about 50 mg/kg and dose volume of 0.125 mL/kg and the pharmacokinetic (PK) profile was determined.
as §1, with “500” for “400”, “16.64” for “19.14”, “35.36” for “40.66”, “43.00” for “35.20”, “0.1” for “0.125”
(§2) A solution of about 400 mg/mL of the compound of Formula (Ia) having 17.00 w/w % water, 36.40 w/w % PEG 300, 35.20 w/w % of a sodium salt of a compound of Formula (Ia), 5.00 w/w % ethanol, and 6.40 w/w % poloxamer 188 was prepared. The solution was administered subcutaneously to male beagle dogs at a dose level of about 12 mg/kg and male Wistar Han rats at a dose level of about 50 mg/kg. The pharmacokinetic profiles were determined, and the results for dogs are summarized in Table and Table, while the results for rats are summarized in Table and Table below.
as §2, with “500” for “400”, “14.06” for “17.00”, “30.12” for “36.40”
A solution of about 300 mg/mL of the compound of Formula (Ia) having 23.33 w/w % water, 48.99 w/w % PEG 300, 26.47 w/w % of a sodium salt of a compound of Formula (Ia), and 1.21 w/w % poloxamer 188 was prepared. The solution was administered subcutaneously to male beagle dogs at a dose level of about 6 mg/kg and male Wistar Han rats at a dose level of about 50 mg/kg. The pharmacokinetic profiles were determined, and the results for dogs are summarized in Table and Table, while the results for rats are summarized in Table and Table below.
as §2, with “18.80” for “17.00”, “40.25” for “36.40”, “34.38” for “35.20”, “1.57” for “6.40”
as §2, with “500” for “400”, “16.29” for “17.00”, “34.88” for “36.40”, “41.92” for “35.20”, “1.91” for “6.40”
A solution of about 400 mg/mL of the compound of Formula (Ia) having 20.90 w/w % water, 44.72 w/w % PEG 300, and 34.38 w/w % of a sodium salt of a compound of Formula (Ia) was prepared. […]

- concentration at 2688 h (Mean n = 3): 168 nM
- concentration at 2688 h (animals #1-#3): 141 nM
- concentration at 3024 h (Mean n = 3): 161 nM
- concentration at 3024 h (animals #1-#3): 127 nM
- concentration at 3360 h (Mean n = 3): 157 nM
- concentration at 3360 h (animals #1-#3): 122 nM
- concentration at 3696 h (Mean n = 3): 134 nM
- concentration at 3696 h (animals #1-#3): 121 nM
- concentration at 4032 h (Mean n = 3): 135 nM
- concentration at 4032 h (animals #1-#3): 97.5 nM
- concentration at 4704 h (Mean n = 3): 88.8 nM
- concentration at 4704 h (animals #1-#3): 79.4 nM
- AUC(0-t) (400 mg/mL solution AA (6.25% poloxamer 188), n = 4, read-out: AUC0-24 h): 3.44 ± 0.69 µM·h
- AUC(0-t) (400 mg/mL solution AA (6.25% poloxamer 188), n = 4, read-out: AUC0-168 h): 32.4 ± 7.6 µM·h
- AUC(0-t) (400 mg/mL solution AA (6.25% poloxamer 188), n = 4, read-out: AUC0-336 h): 55.2 ± 16.3 µM·h
- AUC(0-t) (400 mg/mL solution AA (6.25% poloxamer 188), n = 4, read-out: AUC0-672 h): 98 ± 30.4 µM·h
- AUC(0-t) (400 mg/mL solution AA (6.25% poloxamer 188), n = 4, read-out: AUC0-1008 h): 136 ± 36 µM·h
- AUC(0-t) (400 mg/mL solution AA (6.25% poloxamer 188), n = 4, read-out: AUC0-1344 h): 167 ± 41 µM·h
- AUC(0-t) (400 mg/mL solution AA (6.25% poloxamer 188), n = 4, read-out: AUC0-2352 h): 190 ± 45 µM·h
- AUC(0-t) (400 mg/mL solution AA (6.25% poloxamer 188), n = 4, read-out: AUC0-3024 h): 240 ± 59 µM·h
- AUC(0-t) (400 mg/mL solution AA (6.25% poloxamer 188), n = 4, read-out: AUC0-3696 h): 289 ± 76 µM·h
- AUC(0-t) (400 mg/mL solution W (5.00% ethanol, 1.57% poloxamer 188), n = 3, read-out: AUC0-24 h): 2 ± 0.58 µM·h
- AUC(0-t) (400 mg/mL solution W (5.00% ethanol, 1.57% poloxamer 188), n = 3, read-out: AUC0-168 h): 21.6 ± 4.5 µM·h
- AUC(0-t) (400 mg/mL solution W (5.00% ethanol, 1.57% poloxamer 188), n = 3, read-out: AUC0-336 h): 45.9 ± 11.9 µM·h
- AUC(0-t) (400 mg/mL solution W (5.00% ethanol, 1.57% poloxamer 188), n = 3, read-out: AUC0-672 h): 124 ± 32 µM·h
- AUC(0-t) (400 mg/mL solution W (5.00% ethanol, 1.57% poloxamer 188), n = 3, read-out: AUC0-1008 h): 215 ± 45 µM·h
- AUC(0-t) (400 mg/mL solution W (5.00% ethanol, 1.57% poloxamer 188), n = 3, read-out: AUC0-1344 h): 306 ± 65 µM·h
- AUC(0-t) (400 mg/mL solution W (5.00% ethanol, 1.57% poloxamer 188), n = 3, read-out: AUC0-1680 h): 401 ± 86 µM·h
- AUC(0-t) (400 mg/mL solution W (5.00% ethanol, 1.57% poloxamer 188), n = 3, read-out: AUC0-2352 h): 540 ± 114 µM·h
- AUC(0-t) (400 mg/mL solution W (5.00% ethanol, 1.57% poloxamer 188), n = 3, read-out: AUC0-3024 h): 647 ± 126 µM·h
- AUC(0-t) (400 mg/mL solution W (5.00% ethanol, 1.57% poloxamer 188), n = 3, read-out: AUC0-3696 h): 730 ± 131 µM·h
- AUC(0-t) (400 mg/mL solution W (5.00% ethanol, 1.57% poloxamer 188), n = 3, read-out: AUC0-4704 h): 765 ± 131 µM·h
- AUC(0-t) (400 mg/mL solution Y (water, PEG 300), n = 4, read-out: AUC0-24 h): 1.66 ± 0.32 µM·h
- AUC(0-t) (400 mg/mL solution Y (water, PEG 300), n = 4, read-out: AUC0-168 h): 15.7 ± 4.7 µM·h
Structure (SMILES): CC(C)(C#Cc1ccc(-c2ccc(Cl)c3c(NS(C)(=O)=O)nn(CC(F)(F)F)c23)c([C@H](Cc2cc(F)cc(F)c2)NC(=O)Cn2nc(C(F)(F)F)c3c2C(F)(F)[C@@H]2C[C@H]32)n1)S(C)(=O)=O [compound of Formula (Ia)]
